What was measured:
[1] = test system: RXRγ, FXR, SXR, PPARα, PPARγ, RARα, AHR, VDR, GR, PR, AR, ERα, ERβ; assay: Gene reporter luciferase assays on other nuclear receptors; format: cell-based, human; conditions: 2.5 µM DDA, 8 h, with or without cognate agonist
Source text: HEK293T were used for luciferase assays. Cells were transfected using the PolyEthylenImine (PEI) method with human retinoid-X receptor (RXRγ) and human liver-X-receptors (LXRα or LXRβ) with LXRE-Luc; RXRγ and human farnesoid X receptor (FXR) with EcRE-Luc; RXRγ and human steroid and xenobiotic X receptor (SXR) with DR4-Luc; RXRγ and human peroxisome proliferator activated receptors (PPARα, or PPARγ) with PPRE-Luc; RXRγ and human retinoic acid receptor (RARα) with DR1-Luc; human AHR and human ARNT with a DRE-Luc; human vitamin D receptor (VDR) with VDRE-Luc. Cells were transfected with plasmids encoding human glucocorticoid receptor (GR), progesterone receptor (PR), or androgen receptor (AR) with MMTV-Luc; or estrogen receptors (ERα and ERβ) with an ERE-Luc. The day after transfection with the luciferase reporter gene construct, cells were seeded in 12-well plates (50,000 cells per well). […] Luciferase activity was measured using the luciferase assay reagent (Promega), according to the manufacturer’s instructions. Protein concentrations were measured using the Bradford method to normalize luciferase activities. For each condition, luciferase activity was calculated from the data of three independent wells. […]

SKMEL-28 tumors = assay: SKMEL-28 melanoma xenograft; format: in vivo, mice; conditions: human SKMEL-28; i.p. 20 mg/kg/day
Procedure: Exponentially growing cells were harvested, washed twice in PBS then resuspended in PBS. SKMEL-28, shSKMEL-28 clones (5 × 10^6 cells) and B16F10 (3 × 10^5) cells were injected subcutaneously (s.c.) into the flank of nude mice. HL60, KG1 and shKG1-clones (5 × 10^6) were inoculated s.c. into the flanks of NOD/SCID mice. When tumors were palpable, animals (n = 10–20 mice per group, as indicated) were randomized to receive either DDA (20 mg/kg) intraperitoneally (i.p.) or 40 mg/kg by oral gavage (p.o), once a day, or vehicle solvent for the indicated time. Animals were examined daily and body weights were measured twice a week. In all experiments, tumor volume was determined by direct measurement with a caliper and was calculated using the formula (width^2 × length)/2. At the end of experiments, mice were sacrificed and tumors were excised and divided for intra-tumoral DDA quantification, immunoblotting, or immunohistochemistry analyses.

CC(C)CCC[C@@H](C)[C@H]1CC[C@H]2[C@@H]3C[C@@H](NCCc4cnc[nH]4)[C@@]4(O)C[C@@H](O)CC[C@]4(C)[C@H]3CC[C@]12C [DDA, Dendrogenin A]
agonistic or antagonistic transcriptional activity on other NRs [1]: did not show any agonistic or antagonistic transcriptional activity
tumor growth (SKMEL-28 tumors): significantly reduced the growth

— publication PMC5712521, “Dendrogenin A drives LXR to trigger lethal autophagy in cancers” (Nature Communications, 2017)
